# Experimental data published in patent US11510931B2, “Compositions and methods for treating ophthalmic conditions” (MEDICON PHARMACEUTICALS, INC., priority 2016, dated 2022).
# Key:
# MMPs = assay: General MMP activity in rabbit cornea (FRET peptide); assay type: in vivo
# Method: The general activity of MMPs was determined in the corneas of three groups of rabbits. This MMP activity assay employs a fluorescence resonance energy transfer (FRET) peptide as a generic MMP indicator. Rabbits were treated with PS 1.6% or ketorolac 0.5% eye drops topically applied to their eyes or were not treated (naïve group). Results in relative fluorescence units (RFU)/mg protein (mean±SEM). Naïve=1,328±123; PS=749±218; Ketoroloac=1,272±106 (p<0.03 vs PS).
# In an acute experiment, naïve rabbits were treated with either PS or ketorolac (both administered topically) for 1 h and determined the activity of MMP in the cornea. This assay determines the activity of MMPs collectively in a given tissue.
# [1] = Biodistribution of PS in human eyes (ex vivo); assay type: in vitro ADME; conditions: human eye ex vivo, 10 min contact, 60 min incubation
# Method: Biodistribution of PS in human eyes (ex vivo): Human cadaveric eyes were obtained through the Lions Eye Bank for Long Island, Valley Stream, NY. They were preserved on ice and used within 2 h from removal from the donors.
# The anterior surface of the human eye (corresponding to an area slightly larger than the palpebral fissure) was brought into direct contact with a PS HP-β-CD solution (PS concentration at 0.5%, 2.0% and 3.3%) and incubated for 10 min at 37° C. The eye was then rinsed with 10% dimethylsulfoxide (DMSO) to remove residual PS from the surface of the eye and incubated in PBS for 60 min. […] At the specified times, ocular tissues were dissected and PS levels determined by HPLC. The Table below summarizes the findings.
# [2] = test system: chorioallantoic membrane (CAM); assay: Chorioallantoic membrane (CAM) neovascularization assay; assay type: in vivo, chicken; conditions: day 4; for # of new vessels: Mean ± SEM
# Method: Second, the effect of PS on new vessel formation (neovascularization) was evaluated using the chorioallantoic membrane (CAM) assay. In this assay, fertilized white chicken eggs (SPF Premium, Charles River Laboratory, North Franklin, Conn.) were incubated at 37° C. in 70% humidity for 3 days. The embryos were then incubated ex vivo in a sterile Petri dish for 7 days. Gelatin sponges adsorbed with or without VEGF plus PS or water (vehicle control) were implanted on the CAM surface and the neovasculature was counted on day 4 post implantation under a dissecting microscope.
# [3] = test system: cataract surgery plus LPS-induced ocular inflammation in rabbits; assay: Ocular inflammation after cataract surgery plus intravitreal LPS in rabbits; assay type: in vivo, rabbit; conditions: PS 3.5% in nanoparticles
# Method: The anti-inflammatory effect of PS in New Zealand white rabbits was evaluated following cataract surgery and administration of the proinflammatory bacterial lipopolysaccharide (LPS). Briefly, the lens was removed by phacoemulsification and aspiration and replaced with the hydrophobic acrylic intraocular lens (AR40e, AMO). Upon completion of the operation, 1 μg of LPS dissolved in 10 μl PBS was injected into the vitreous to induce uveitis.
# Rabbits were treated with PS 3.5% formulated in nanoparticles or vehicle (nanoparticles without PS) applied topically as eye drops three times per day. The first application was made within 1 h after completion of surgery. The rabbits were examined daily and the aqueous humor (AH) was sampled by needle aspiration on days 1, 3, and 5 following the injection of LPS. The number of infiltrating cells in the AH was determined following standard methods. On day 5, the rabbits were euthanized and the implanted lens was removed and fixed in 2.5% glutaraldehyde and the number of inflammatory cells attached to the lens was examined under a dissecting microscope.
smiles,measurement,setting,value
"CCOP(=O)(OCC)OCCCCOC(=O)CC1=C(C)/C(=C/c2ccc([S+](C)[O-])cc2)c2ccc(F)cc21 (centres unmarked) [PS, phosphosulindac]",suppression of the activity of MMPs in the cornea,"MMPs; naïve rabbits, topical, 1 h",43%
same,general activity of MMPs in the corneas,"MMPs; rabbits, PS 1.6% or ketorolac 0.5% eye drops, mean±SEM",749±218 RFU/mg protein
same,PS in Aqueous,[1]; 0.5% PS HP-β-CD solution,2.4 µM
same,PS in Choroid,[1]; 0.5% PS HP-β-CD solution,28.5 µM
same,PS in Cornea,[1]; 0.5% PS HP-β-CD solution,187.2 µM
same,PS in Iris,[1]; 0.5% PS HP-β-CD solution,25.6 µM
same,PS in Lens,[1]; 0.5% PS HP-β-CD solution,0.6 µM
same,PS in Retina,[1]; 0.5% PS HP-β-CD solution,2.9 µM
same,PS in Sclera,[1]; 0.5% PS HP-β-CD solution,381.3 µM
same,PS in Vitreous,[1]; 0.5% PS HP-β-CD solution,0.3 µM
same,PS in Cornea,[1]; 2.0% PS HP-β-CD solution,397.7 µM
same,PS in Iris,[1]; 2.0% PS HP-β-CD solution,34.2 µM
same,PS in Lens,[1]; 2.0% PS HP-β-CD solution,1.4 µM
same,PS in Retina,[1]; 2.0% PS HP-β-CD solution,38.7 µM
same,PS in Sclera,[1]; 2.0% PS HP-β-CD solution,870.9 µM
same,PS in Aqueous,[1]; 3.3% PS HP-β-CD solution,19.5 µM
same,PS in Choroid,[1]; 3.3% PS HP-β-CD solution,261.4 µM
same,PS in Cornea,[1]; 3.3% PS HP-β-CD solution,266.4 µM
same,PS in Iris,[1]; 3.3% PS HP-β-CD solution,169.3 µM
same,PS in Lens,[1]; 3.3% PS HP-β-CD solution,1.9 µM
same,PS in Retina,[1]; 3.3% PS HP-β-CD solution,48.5 µM
same,PS in Sclera,[1]; 3.3% PS HP-β-CD solution,"2,596.6 μM"
same,PS in Vitreous,[1]; 3.3% PS HP-β-CD solution,4.3 µM
same,inhibition at 16 µM,"[2]; Gallus gallus, 96 h, VEGF + PS 16 μM",26%
same,inhibition at 50 µM,"[2]; Gallus gallus, 96 h, VEGF + PS 50 μM",34%
same,neovascularization % inhibition,[2]; PS 50 μM without VEGF,29 (P < 0.016) %
same,# of new vessels,[2]; PS 50 μM without VEGF,41 ± 3.2
same,# of new vessels,[2]; VEGF + PS 16 μM,46.4 ± 1.5
same,# of new vessels,[2]; VEGF + PS 50 μM,41.4 ± 1.0
same,ocular inflammation (clinical appearance),"[3]; eye drops three times per day, first 24 h of treatment, FIG. 13",essentially eliminated
same,number of inflammatory cells in aqueous humor (AH),"[3]; day 3, eye drops three times per day, FIG. 14",< 70000 mL⁻¹
same,inflammatory cells attached to the implanted lens,[3]; day 5,very few or no cells
